# Measured values: the METLIN SMRT retention time set (Domingo-Almenara et al. 2019)
# Test: gradient 5% acetonitrile 3 min, to 50% in 2 min, to 85% in 15 min, held 3 min, 100 µL/min
# Settings: column: Zorbax Extend-C18 2.1 x 50 mm; eluents: water / acetonitrile, 0.1% formic acid
# Summary of the method: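 Using water and acetonitrile that each contained 0.1% formic acid, mixtures of ~100 pure standards were separated at 100 μL/min on a Zorbax Extend-C18 column (2.1 × 50 mm, 1.8 μm). The HPLC fed a quadrupole time-of-flight mass spectrometer working in positive and negative ionization mode, with dead and dwell volumes of 40 μL and 900 μL. Data were acquired over 3 months. Retention time was read from computationally picked adduct peaks after manual inspection of each.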
row,RP-LC retention time,Structure (SMILES)
1,651 s,Cc1nc(N2CCCC2)cc(N2CCN(C(=O)c3ccccc3Br)CC2)n1
2,698 s,CC(C)n1cc(CN2CC(F)(F)C[C@H]2COc2cccnc2)c2ccccc21
3,847 s,COc1cc(NC(=O)c2cc(C)n3nc(C)cc3n2)cc(OC)c1OC
4,592 s,O=C(CN1CCCCC1c1nc(C2CC2)no1)Nc1cccnc1 (centres undefined)
5,721 s,O=C1NC(C(=O)Nc2cccc(Cl)c2)Cn2cccc21 (centres undefined)
6,1030 s,COC(=O)c1cccc(NC(=O)NC(C(=O)N2CCc3ccccc32)c2ccccc2)c1 (centres undefined)
7,798 s,CCOC(=O)C1CCN(C(=O)CCC(=O)N2CCCn3nc(-c4cn(C)c5ccccc45)cc32)CC1
8,739 s,Cc1ccc(=O)n(-c2ccccc2)c1
9,928 s,COc1ccccc1C(=O)NC1CCN(c2cc(C)cc(C)c2)C1=O (centres undefined)
10,897 s,CCN(CC)c1nc(NC)nc(-n2cnc(SC)n2)n1
11,818 s,CCNC(=O)C1c2ccccc2C(=O)N(CC(C)C)C1c1cccs1 (centres undefined)
12,607 s,O=C(C1CCCN(S(=O)(=O)c2ccc(-c3ccn[nH]3)o2)C1)N1CCN(c2ccccn2)CC1 (centres undefined)
13,575 s,Cn1cnc(S(=O)(=O)N2CC(n3cc(C(=O)N4CCOCC4)nn3)C2)c1
14,783 s,Cc1ccc(CNC(=O)C2(C)CN(S(=O)(=O)c3ccccc3)CC(=O)N2C2CC2)cc1 (centres undefined)
15,1230 s,Cc1cc(C)c(NS(=O)(=O)c2cc(-c3cc(C(F)(F)F)on3)sc2C)c(C)c1
16,783 s,COc1ccc(-c2cn3c(CC(=O)Nc4nc5ccc(C)cc5s4)csc3n2)cc1OC
17,1030 s,O=C(Cn1nc(N2CCSCC2)c2ccccc2c1=O)Nc1cccc(C(F)(F)F)c1
18,730 s,COCCn1nc2n(c1=O)CCN(C(=O)C1(c3ccccc3)CCCC1)CC2
19,896 s,CCNC(=O)N1CCCC(c2cccc(C(=O)NCc3ccc(C(F)(F)F)cc3)c2)C1 (centres undefined)
20,1170 s,O=S(=O)(c1ccc(-c2noc(-c3cccc(Cl)c3)n2)cc1)N1CCOCC1
21,702 s,COCCc1nnc(NC(=O)c2ccc3c(c2)CCCC3)o1
22,770 s,CSc1nnc(-c2nn(C)c3c2CN(C(=O)c2ccc(C)c(C)c2)CC3)n1C

row,RP-LC retention time,Structure (SMILES)
1,687 s,O=C1CCCN1CCCN1C(=O)[C@H]2CN(Cc3ccccc3OC(F)(F)F)C[C@H]2C1=O
2,1070 s,O=C1CC(c2noc(-c3ccc(F)cc3)n2)CN1c1ccc(Cl)cc1 (centres undefined)
3,1120 s,CCCN1C(=O)c2cc(S(=O)(=O)Nc3ccc(C)c(F)c3)ccc2Oc2cccnc21
4,941 s,CCc1nn2c(CNS(=O)(=O)c3cc(C)cc(C)c3)c(-c3ccccc3)nc2s1
5,1220 s,COc1cccc(C(=O)N2CCC(Oc3nc4c(C)ccc(C)c4s3)CC2)c1OC
6,746 s,COc1ccc(-c2cc3c(=O)n(CC(=O)N4CCCC4)ncn3n2)cc1
7,953 s,CCCCC(=O)Nc1nc(-c2ccc3c(c2)N(C)C(=O)C(C)O3)cs1 (centres undefined)
8,1160 s,Cc1ccc(-c2noc(Cn3c(=O)n(Cc4ccccc4)c(=O)c4sccc43)n2)cc1C
9,548 s,CNC(=O)c1ccc(-c2nc3cc(NS(=O)(=O)c4cnc[nH]4)ccc3n2C)cc1
10,815 s,Cc1ccc(-c2nc3nc(C)cc(N(CCO)Cc4ccccc4)n3n2)cc1
11,758 s,COc1ccc(C(=O)NCCc2c[nH]c3ccc(F)cc23)cc1OC
12,736 s,COc1ncc(C(=O)Nc2ccc(C)cc2C)c(C)n1
13,707 s,CC(Oc1cccc(Cl)c1)C(=O)N1CCCN(c2cc(=O)n(C)c(=O)n2C)CC1 (centres undefined)
14,834 s,O=C(NCCS(=O)(=O)N1CCN(c2ccc(F)cc2)CC1)c1cccc([N+](=O)[O-])c1
15,749 s,CCCS(=O)(=O)N1CCCC(c2nnc(-c3cccs3)o2)C1 (centres undefined)
16,862 s,Cc1noc(-c2ccc(-n3cnc(C(=O)NC(C)c4ccc(F)cc4)c3)nc2)n1 (centres undefined)
17,661 s,O=C(C1CCCN(c2nnc(-n3cccc3)s2)C1)N1CCN(Cc2ccccc2)CC1 (centres undefined)
18,692 s,CC(C)c1nnc2n1CCN(C(=O)COc1ccc(Cl)cc1)C2
19,788 s,Cc1ccc(C)c(NC(=O)Cc2csc(C)n2)c1
20,863 s,Cc1ccc(C(=O)N(CCCN)[C@@H](c2oc3cc(Cl)ccc3c(=O)c2Cc2ccccc2)C(C)C)cc1
21,957 s,CC1(C)CC(=O)c2cn(-c3ccc(F)cc3)c(=O)c(C(=O)NC3CCCC3)c2C1
22,894 s,Cc1cccc(CNC(=O)c2nnc(-c3ccc(S(=O)(=O)N(C)C)cc3)o2)c1

row,RP-LC retention time,Structure (SMILES)
1,1000 s,Cc1cccc(Oc2nccn3c(=O)n(CC(=O)NCCC4=CCCCC4)nc23)c1C
2,1140 s,O=C(Nc1ccc(Br)cc1)Nc1ccccc1Cl
3,834 s,CCN(C(=O)CN1C(=O)NC(c2ccc(Cl)cc2)C2=C1COC2=O)c1ccccc1 (centres undefined)
4,897 s,CCCN(CCC)S(=O)(=O)c1cc(-c2nnc(C)o2)co1
5,572 s,COc1cccc(CN2CCC3(CC2)CC(O)CCO3)n1 (centres undefined)
6,791 s,O=C(NCc1ccc2c(c1)OCCCO2)c1cccs1
7,788 s,CN1C(=O)CCc2cc(NS(=O)(=O)Cc3ccc(Cl)cc3)ccc21
8,878 s,CC(C)NC(=O)c1ccc2c(c1)CCCN2S(=O)(=O)c1ccccc1
9,804 s,CN(CC1CCOCC1)C(=O)Nc1cc(F)c(F)c(F)c1
10,836 s,COC(=O)c1cc2c(=O)n(Cc3ccc(OC)cc3)ccc2nc1C
11,651 s,CC(C)NC(=O)C1Cn2cccc2C(=O)N1C (centres undefined)
12,806 s,Cc1ccc(-c2cc3c(=O)n(Cc4noc(CN5CCCCCCC5)n4)ccn3n2)cc1C
13,683 s,Cc1cc2nc(C(F)(F)F)c(=O)n(C(C)C(=O)NCCN3CCOCC3)c2cc1C (centres undefined)
14,643 s,O=C(NCc1ccc2c(c1)OCO2)c1ccc(-c2cc(N3CCOCC3)ncn2)cc1
15,686 s,CCc1nn2c(CNC(=O)c3cccc(Br)c3)c(C)nc2s1
16,718 s,Cc1cc2c(cc1S(=O)(=O)N1CCCC1C(=O)NC1CCCC1)OCC(=O)N2 (centres undefined)
17,975 s,Cc1ccccc1CNC(=O)C1CCN(S(C)(=O)=O)c2cc(Cl)ccc2O1 (centres undefined)
18,593 s,CCC1CCCCN1CCNC(=O)CCc1cc2cc(OC)ccc2[nH]c1=O (centres undefined)
19,645 s,COc1ccc(F)cc1-c1cc(N2CCN(C(=O)NCC(C)C)CC2)ncn1
20,891 s,O=C(NCc1ccco1)N1c2ccccc2CC1c1nc(C2CC2)no1 (centres undefined)
21,1040 s,O=c1ccc(-c2ccc(Cl)cc2)nn1CCc1nc(-c2ccc3c(c2)OCO3)no1
22,640 s,Cc1nc(-c2ccc(S(=O)(=O)N3CCN(c4ccccn4)CC3)cc2)co1

row,RP-LC retention time,Structure (SMILES)
1,1190 s,COc1ccc2c(c1)CCc1sc(NC(=O)c3ccc(Br)cc3)nc1-2
2,713 s,COc1ccc(NC(=O)C2CC(=O)N(c3n[nH]c4cccc(F)c34)C2)c(OC)c1 (centres undefined)
3,739 s,Cc1cc(NC(=O)C2(C)Oc3cccnc3NC2=O)ccc1F (centres undefined)
4,675 s,N[C@@H](CC(=O)N1CCn2c(nnc2C(F)(F)F)C1)Cc1cc(F)c(F)cc1F
5,651 s,CCc1cc(N2CCN(C(=O)COc3ccc(Cl)cc3)CC2)nc2nncn12
6,843 s,CCc1nc(-c2cc(S(=O)(=O)NCC(=O)NC3CCCC3)c(C)s2)no1
7,1100 s,Cc1cc(-c2c(C)sc(C)c2S(=O)(=O)Nc2ccc(C)c(Cl)c2)n[nH]1
8,767 s,COCCNC(=O)C1Cc2cc(C(F)(F)F)ccc2N2CCN(C(=O)c3ccco3)CC12 (centres undefined)
9,831 s,Cc1ccc(NC(=O)C2CCN(S(=O)(=O)c3cc(C(=O)N4CCCC4)cs3)CC2)c(C)c1
10,1000 s,CN(CC(=O)Nc1ccc(F)c(F)c1F)c1nc2c(Cl)cccc2s1
11,674 s,Cc1ccc(OCC(=O)NC[C@@]23CCC[C@H]2N(C)C(=O)CC3)cc1
12,872 s,O=C(CC1CCCC1)NCC1(c2ccccc2)CCCOCC1 (centres undefined)
13,644 s,CCN1CCN(CCNC(=O)c2cc(-c3ccc(Cl)cc3)cn2C)CC1
14,962 s,O=C(NCc1csc(-c2ccccc2)n1)C1CCN(S(=O)(=O)c2cccc(Cl)c2)CC1
15,844 s,CC(C)c1nc(NCc2ccc3c(c2)OCO3)ncc1C(=O)O
16,840 s,CC(=O)c1cccc(NC(=O)c2cccc3ccccc23)c1
17,640 s,O=C(NCc1ccccc1)c1ccc2c(c1)Sc1ncccc1C(=O)N2C1CC1
18,705 s,Cc1cccc(N(C)C(=O)Cn2cnc3nc4c(cc3c2=O)CCCC4)c1
19,961 s,COc1cccc(Nc2c(-c3ccc(Cl)cc3)nc3cnccn23)c1
20,678 s,Cc1ccc(NS(=O)(=O)c2cc3n(c2)CCCNC3=O)c(C)c1
21,710 s,Cc1cccc(N2CCN(c3cc(C(=O)O)c4cc(NC(=O)CC(C)C)ccc4n3)CC2)c1

row,Structure (SMILES),RP-LC retention time
1,CCOc1ccc(CNc2nc3ccccc3n2CCN(CC)CC)cc1,1300 s
2,O=C(CCc1nc2ccccc2s1)N1[C@H]2CC[C@@H]1c1cnc(-c3ccc(F)cc3)nc1C2,960 s
